According to PMC12118597 (Science Advances, 2025):
Where two headings read alike, the source gives them in different places.

Target: SARS-CoV-2 NSP3 macrodomain (Mac1) (Severe acute respiratory syndrome coronavirus 2, UniProt P0DTD1)
Type: binding
Details: for 1-BDC: PanDDA background density correction factor; for PanDDA run, overall: Hit / PanDDA run, overall: Modeled: P43 crystal form; for Total number of conformations: ligand conformations modeled in the crystal structure; for 2*(1-BDC) (%): occupancy estimate from PanDDA; for Refined ligand occupancy (%): refined crystallographic occupancy
[1] = TRUE = crystal structure with ligand obtained
[2] = site of ligand in X-ray crystal structure
[3] = ligand-bound crystal structure obtained (TRUE)
[4] = site occupied in X-ray crystal structure
[5] = crystal soak 10 mM, TFA/DMSO background map

| Structure (SMILES) | Occupancy difference (refined_occupancy - 2*(1-BDC)) | 1-BDC | X-ray crystal structure [1] | PanDDA run, overall: Hit (crystal soak 10 mM) | PanDDA run, overall: Modeled (crystal soak 10 mM) | PanDDA run, DMSO background map: 1-BDC (crystal soak 10 mM) | PanDDA run, DMSO background map: Hit (crystal soak 10 mM) | Total number of conformations | 2*(1-BDC) (%) | Refined ligand occupancy (%) | Binding site [2] | X-ray crystal structure [3] | Binding site [4] | PanDDA run, overall: Modeling comment (crystal soak 10 mM) | PanDDA run, TFA/DMSO background map: 1-BDC [5] | PanDDA run, TFA/DMSO background map: Hit [5] | Phe132 loop open state |
| --- | --- | --- | --- | --- | --- | --- | --- | --- | --- | --- | --- | --- | --- | --- | --- | --- | --- |
| OCC(Nc1ncnc2[nH]ccc12)C1CCc2ccccc21 (stereo not drawn) [AVI-3693] | 16 | 0.22 | TRUE | TRUE | TRUE | 0.22 | TRUE | 2 | 44 | 60 | Adenosine |  |  |  |  |  |  |
| OCC(Cc1ccccn1)Nc1ncnc2[nH]ccc12 (stereo not drawn) [AVI-3696] | 14 | 0.13 | TRUE | TRUE | TRUE | 0.13 | TRUE | 2 | 26 | 40 | Adenosine |  |  |  |  |  |  |
| OCC(O)C1CCCN1c1ncnc2[nH]ccc12 (stereo not drawn) [AVI-3701] | 0 | 0.18 |  | TRUE |  | 0.18 | TRUE | 1 | 36 | 36 |  | TRUE | Adenosine |  |  |  |  |
| O=C(O)C(F)(F)F.OC[C@H]1CC2(CN1c1ncnc3[nH]ccc13)OCCO2 [AVI-3702] | 0 | 0.21 |  | TRUE |  | 0.21 | TRUE | 1 | 42 | 42 |  | TRUE | Adenosine |  |  |  |  |
| OCC(Cc1cncs1)Nc1ncnc2[nH]ccc12 (stereo not drawn) [AVI-3703] | 0 | 0.15 | TRUE | TRUE |  | 0.15 | TRUE | 1 | 30 | 30 | Adenosine |  |  |  |  |  |  |
| OCC(Cc1ccoc1)Nc1ncnc2[nH]ccc12 (stereo not drawn) [AVI-3705] | 0 | 0.21 | TRUE | TRUE |  | 0.21 | TRUE | 1 | 42 | 42 | Adenosine |  |  |  |  |  |  |
| O=C(O)C(F)(F)F.OCC(Cc1cccc(F)c1)Nc1ncnc2[nH]ccc12 (stereo not drawn) [AVI-3706] |  |  |  |  |  |  |  |  |  |  |  |  |  | TFA only |  |  |  |
| OCC1CC2(CCOCC2)CN1c1ncnc2[nH]ccc12 (stereo not drawn) [AVI-3707] | 0 | 0.21 |  | TRUE |  | 0.21 | TRUE | 1 | 42 | 42 |  | TRUE | Adenosine | Distal site, weak density, not modeled |  |  |  |
| OCC(COCc1ccccc1)Nc1ncnc2[nH]ccc12 (stereo not drawn) [AVI-3709] | 0 | 0.19 | TRUE | TRUE |  | 0.19 | TRUE | 2 | 38 | 38 | Adenosine |  |  |  |  |  |  |
| O=C(O)C(F)(F)F.OC[C@@H]1CC2(CC2)CN1c1ncnc2[nH]ccc12 [AVI-3710] | 0 | 0.26 |  | TRUE |  | 0.26 | TRUE | 2 | 52 | 52 |  | TRUE | Adenosine | Weak density for open state of Phe132 loop |  |  |  |
| OCC(Cc1cccs1)Nc1ncnc2[nH]ccc12 (stereo not drawn) [AVI-3711] | 0 | 0.21 | TRUE | TRUE |  | 0.21 | TRUE | 1 | 42 | 42 | Adenosine |  |  |  |  |  |  |
| O=C(O)C(F)(F)F.OCC1C2C=CC(C2)N1c1ncnc2[nH]ccc12 (stereo not drawn) [AVI-3712] |  |  |  | TRUE |  | 0.15 | TRUE |  |  |  |  |  |  | Weak density, not modeled | 0.05 | TRUE |  |
| CC(C)(C)C(O)CC(CO)Nc1ncnc2[nH]ccc12.O=C(O)C(F)(F)F (stereo not drawn) [AVI-3714] |  |  |  |  |  |  |  |  |  |  |  |  |  | TFA only |  |  |  |
| OCC(Nc1ncnc2[nH]ccc12)c1ccccc1 (stereo not drawn) [AVI-3715] | 0 | 0.18 | TRUE | TRUE |  | 0.18 | TRUE | 1 | 36 | 36 | Adenosine |  |  |  |  |  |  |
| OCC1COCCN1c1ncnc2[nH]ccc12 (stereo not drawn) [AVI-3717] | 0 | 0.14 |  | TRUE |  | 0.14 | TRUE | 2 | 28 | 28 |  | TRUE | Adenosine |  |  |  |  |
| CC(C)(C)C1CCC(CO)N(c2ncnc3[nH]ccc23)C1 (stereo not drawn) [AVI-3719] | 0 | 0.08 |  | TRUE |  | 0.08 | TRUE | 1 | 16 | 16 |  | TRUE | Adenosine |  |  |  | TRUE |
| CN1CCN(c2ncnc3[nH]ccc23)C(CO)C1 (stereo not drawn) [AVI-3721] | 0 | 0.06 |  | TRUE |  | 0.06 | TRUE | 2 | 12 | 12 |  | TRUE | Adenosine |  |  |  |  |
